The record followed here is patent US20230096028A1, “BICYCLIC HETEROCYCLYL COMPOUNDS AND USES THEREOF” (Revolution Medicines, Inc., priority 2019, published 2023).

The target of assay [1] is T1, SOS1 catalytic domain (residues 564-1049) (Homo sapiens, UniProt Q07889).
T1 sequence (Q07889 564-1049): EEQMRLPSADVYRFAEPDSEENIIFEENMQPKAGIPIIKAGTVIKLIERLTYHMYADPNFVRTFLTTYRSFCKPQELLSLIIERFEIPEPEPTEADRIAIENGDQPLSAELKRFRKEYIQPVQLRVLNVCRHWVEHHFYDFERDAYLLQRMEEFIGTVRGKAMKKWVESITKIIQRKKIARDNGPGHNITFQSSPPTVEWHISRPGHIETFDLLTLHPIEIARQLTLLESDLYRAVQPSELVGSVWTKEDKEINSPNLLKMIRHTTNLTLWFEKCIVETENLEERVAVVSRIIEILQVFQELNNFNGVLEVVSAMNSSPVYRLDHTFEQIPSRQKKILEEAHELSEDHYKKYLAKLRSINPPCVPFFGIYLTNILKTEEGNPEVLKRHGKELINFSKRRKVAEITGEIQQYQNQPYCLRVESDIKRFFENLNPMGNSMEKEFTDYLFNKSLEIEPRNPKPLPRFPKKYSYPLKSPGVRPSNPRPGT
The assay is described as follows: Potency Assay: binding affinity to SOS1 using Surface Plasmon Resonance (SPR). Also on record: SOS1 catalytic domain (residues 564-1049) immobilized on a sensor chip. The following applies: immobilized SOS1 catalytic domain (residues 564-1049), read-out: SOS1 SPR Equilibrium Kd. How it is done:
Data was reported as equilibrium dissociation constant (Kd) values.
Using a GE Biacore 8K SPR instrument, avi-tagged SOS1 catalytic domain protein was immobilized to a level of approximately 6000 response units (RU) on a streptavidin-coated SPR sensor chip in assay buffer containing 0.01 M HEPES, 0.15 M NaCl and 0.05% v/v Surfactant P20. […] For each test compound, a separate 0 μM sample was generated for use during subsequent double reference subtraction. Serially for each test compound, individual dilution samples were flowed over the immobilized SOS1 protein at a flow rate of 50 μL/minute to monitor the association with SOS1. Dissociation of bound test compound from the SOS1 protein was immediately monitored by flowing assay buffer over the sensor surface and monitoring the decrease in binding signal back to the baseline level seen in the absence of compound. This was repeated for all compound dilutions in each series. The binding level response for each test compound concentration was noted immediately prior to the end of the association phase, and a secondary plot generated showing binding response level versus test compound concentration generated for each compound dilution series.

Assay [2] has as its target T1, SOS1 catalytic domain (residues 564-1049). The assay is described as follows: Mode of Action Assay: inhibition of SOS1 nucleotide exchange activity (SOS1 TR-FRET IC50 Assay). Background: TR-FRET usually uses a lanthanide donor and a delayed reading to cut background.

A value given as a limit tells only on which side of the number the result lay.

Broadly, the Kd is a measure of binding affinity in units of concentration. In general, IC50 refers to the midpoint of a concentration-inhibition curve. A lower IC50 goes with greater potency. Consider `COC1CN([C@H]2CCc3nc(Cl)nc(N[C@H](C)c4cc(N)cc(C(F)(F)F)c4)c3C2)C1` [Example 432], for which the Kd in assay [1] was less than 0.4 µM. This molecule also yielded an IC50 in assay [2] of less than 1 µM.

In the case of `CC(=O)N1CC(C)(C(=O)N2Cc3nc(Cl)nc(N[C@H](C)c4cccc(C(F)F)c4F)c3C2)C1` [Example 346], in assay [1], the dissociation constant Kd was less than 0.4 µM. For the same molecule, in assay [2], the IC50 is less than 1 µM. For `CC(=O)N1CC(F)(C(=O)N2Cc3nc(Cl)nc(N[C@H](C)c4cccc(C(F)F)c4F)c3C2)C1` [Example 347], in that order: less than 0.4 µM and less than 1 µM.

For `C[C@@H](Nc1nc(Cl)nc2c1CN(C(=O)c1ncc[nH]1)C2)c1cc(N)cc(C(F)(F)F)c1` [Example 95], the Kd in assay [1] is greater than 0.4 µM. Further, in assay [2], the IC50 is greater than 1 µM.

Turning to `COC1(C(=O)N2Cc3nc(C(F)(F)CN)nc(N[C@H](C)c4cccc(C(F)F)c4F)c3C2)CCOCC1` [Example 488, 2-(2-amino-1,1-difluoroethyl)-N-[(1R)-1-[3-(difluoromethyl)-2-fluorophenyl]ethyl]-6-(4-methoxyoxane-4-carbonyl)-5H,6H,7H-pyrrolo[3,4-d]pyrimidin-4-amine], the Kd in assay [1] was less than 0.4 µM. For the same molecule, the 50% inhibitory concentration (IC50) in assay [2] was less than 1 µM.

Take `C[C@@H](Nc1nc(Cl)nc2c1CN(C(=O)NC1CC[C@H](N)C1)C2)c1cc(N)cc(C(F)(F)F)c1` (stereo partly drawn) [Example 150]: the equilibrium dissociation constant (Kd) in assay [1] is greater than 0.4 µM. For the same molecule, the IC50 in assay [2] is less than 1 µM.

With `CNC(=O)N1Cc2nc(C)nc(N[C@H](C)c3cc(N)cc(C(F)(F)F)c3)c2C1` [Example 122, 4-{[(1R)-1-[3-amino-5-(trifluoromethyl)phenyl]ethyl]amino}-N,2-dimethyl-5H,6H,7H-pyrrolo[3,4-d]pyrimidine-6-carboxamide], the Kd in assay [1] is greater than 0.4 µM. In assay [2], this molecule gave a 50% inhibitory concentration (IC50) greater than 1 µM. Turning to `C[C@@H](Nc1nc(Cl)nc2c1CN(C(=O)N1CCC3(CC1)COC3)C2)c1cc(N)cc(C(F)(F)F)c1` [Example 159], in assay [1], the dissociation constant Kd was less than 0.4 µM. For the same molecule, the IC50 in assay [2] was less than 1 µM. In the case of `COc1cccnc1C(=O)N1Cc2nc(Cl)nc(N[C@H](C)c3cc(N)cc(C(F)(F)F)c3)c2C1` [Example 74], the Kd in assay [1] was less than 0.4 µM. In assay [2], this molecule registered an IC50 of less than 1 µM. For `CCOCCS(=O)(=O)N1Cc2nc(Cl)nc(N[C@H](C)c3cc(N)cc(C(F)(F)F)c3)c2C1` [Example 50], in assay [1], the Kd was greater than 0.4 µM. In addition, the 50% inhibitory concentration (IC50) in assay [2] is greater than 1 µM. For `C[C@@H](Nc1nc(Cl)nc2c1CN(C(=O)c1cnccn1)C2)c1cc(N)cc(C(F)(F)F)c1` [Example 66], in that order: greater than 0.4 µM and greater than 1 µM. For `C[C@@H](Nc1nc(Cl)nc2c1CN(S(=O)(=O)N1CCN(C)CC1)C2)c1cc(N)cc(C(F)(F)F)c1` [Example 25] the same measures were less than 0.4 µM and less than 1 µM. Turning to `C[C@@H](Nc1nc(Cl)nc2c1CN(C(=O)c1nccnn1)C2)c1cc(N)cc(C(F)(F)F)c1` [Example 64], in assay [1], the dissociation constant Kd was greater than 0.4 µM. Moreover, in assay [2], the concentration for half-maximal inhibition (IC50) was greater than 1 µM. As to `Cc1cn2nnc(C(=O)N3Cc4nc(Cl)nc(N[C@H](C)c5cc(N)cc(C(F)(F)F)c5)c4C3)c2c(=O)[nH]1` [Example 103], the equilibrium dissociation constant (Kd) in assay [1] is less than 0.4 µM. The same molecule gave a half-inhibitory concentration (IC50) in assay [2] greater than 1 µM.

Turning to `C[C@@H](Nc1nc(Cl)nc2c1CN(C(=O)C1CC3(CNC3)C1)C2)c1cc(N)cc(C(F)(F)F)c1` [Example 98], in assay [1], the Kd is less than 0.4 µM. For the molecule `C[C@@H](Nc1nc(Cl)nc2c1CN(C(=O)C1(N)CCCOC1)C2)c1cc(N)cc(C(F)(F)F)c1` (stereo partly drawn) [Example 88], the equilibrium dissociation constant (Kd) in assay [1] was less than 0.4 µM. As to `C[C@@H](Nc1nc(Cl)nc2c1CN(C(=O)c1cc3c(s1)CCOC3)C2)c1cc(N)cc(C(F)(F)F)c1` [Example 105], in assay [1], the Kd was greater than 0.4 µM. As to `C[C@@H](Nc1nc(Cl)nc2c1CN(C(=O)N1C[C@H]3COC[C@H]3C1)C2)c1cc(N)cc(C(F)(F)F)c1` [Example 149], the Kd in assay [1] is less than 0.4 µM. `C[C@@H](Nc1nc(Cl)nc2c1CN(C(=O)N1CCc3ncncc3C1)C2)c1cc(N)cc(C(F)(F)F)c1` [Example 144]: the dissociation constant Kd in assay [1] is less than 0.4 µM.
